Laboratory results reported in patent US20120015907A1, “Furopyridine compounds and uses thereof” (NOVARTIS AG, priority 2010, published 2012).

Target: T1, HCV polymerase (Hepatitis C virus genotype 1b, UniProt Q9WMX2)
T1 construct: (His)6 (C)
Assay: biochemical
Conditions: NS5B polymerase IC50 μM, polymerase assay of Biological Example 1
Text: A number of assays have been published to assess these activities. A general method that assesses the gross increase of HCV virus in culture was disclosed in U.S. Pat. No. 5,738,985 to Miles et al. In vitro assays have been reported in Ferrari et al. Jnl. of Vir., 73:1649-1654, 1999; Ishii et al., Hepatology, 29:1227-1235, 1999; Lohmann et al., Jnl of Bio. Chem., 274:10807-10815, 1999; and Yamashita et al., Jnl. of Bio. Chem., 273:15479-15486, 1998.
WO 97/12033, filed on Sep. 27, 1996, by Emory University, listing C. Hagedorn and A. Reinoldus as inventors, which claims priority to U.S. Provisional Patent Application Ser. No. 60/004,383, filed on September 1995, described an HCV polymerase assay that can be used to evaluate the activity of the of the compounds described herein. Another HCV polymerase assay has been reported by Bartholomeusz, et al., Hepatitis C Virus (HCV) RNA polymerase assay using cloned HCV non-structural proteins; Antiviral Therapy 1996:1(Supp 4) 18-24.

| SMILES | IC50 [µM] |
| --- | --- |
| CCOP(C)(=O)CCCN(c1nc2oc(-c3ccc(C)cc3)c(C(=O)NC)c2cc1C1CC1)S(C)(=O)=O (stereo not drawn) [Example 23.99992, ethyl 3-(N-(5-cyclopropyl-3-(methylcarbamoyl)-2-p-tolylfuro[2,3-b]pyridin-6-yl)methylsulfonamido)propyl (methyl)phosphinate] | 0.007 |
| CNC(=O)c1c(-c2ccc(C)cc2)oc2nc(N(CCCCP(C)(=O)O)S(C)(=O)=O)c(C3CC3)cc12 [Example 23.99999, 4-(N-(5-cyclopropyl-3-(methylcarbamoyl)-2-p-tolylfuro[2,3-b]pyridin-6-yl)methylsulfonamido)butyl (methyl)phosphinic acid] | 0.006 |

Same assay, conditions: polymerase assay of Biological Example 1; read-out: NS5B polymerase IC50

| IC50 [µM] | SMILES |
| --- | --- |
| 0.016 | CNC(=O)c1c(-c2ccc(C)cc2)oc2nc(N(CCCCN)S(C)(=O)=O)c(C3CC3)cc12 [Example 23.999993, 6-(N-(4-aminobutyl)methylsulfonamido)-5-cyclopropyl-N-methyl-2-p-tolylfuro[2,3-b]pyridine-3-carboxamide] |
| 0.004 | CNC(=O)c1c(-c2ccc(C)cc2)oc2nc(N(CCCO)S(C)(=O)=O)c(C3CC3)cc12 [Example 23.99997, 5-cyclopropyl-6-(N-(3-hydroxypropyl)methylsulfonamido)-N-methyl-2-p-tolylfuro[2,3-b]pyridine-3-carboxamide] |
| 0.531 | CCc1cc2c(C(=O)NC)c(-c3ccc(F)cc3)oc2nc1N(C[C@H](C)Cc1ccc(OC)nc1)S(C)(=O)=O [Example 21.7, (R)-5-ethyl-2-(4-fluorophenyl)-6-(N-(3-(6-methoxypyridin-3-yl)-2-methylpropyl)methylsulfonamido)-N-methylfuro[2,3-b]pyridine-3-carboxamide] |
| 0.031 | CCc1cc2c(C(=O)NC)c(-c3ccc(F)cc3)oc2nc1N(CCCC(C)(C)O)S(C)(=O)=O [Example 22.94, 5-ethyl-2-(4-fluorophenyl)-6-(N-(4-hydroxy-4-methylpentyl)methylsulfonamido)-N-methylfuro[2,3-b]pyridine-3-carboxamide] |
| 0.006 | CNC(=O)c1c(-c2ccc(C)cc2)oc2nc(N(CCC[C@H](COC)C(=O)N3C(=O)OC[C@@H]3Cc3ccccc3)S(C)(=O)=O)c(C3CC3)cc12 [Example 47.72] |
| 0.026 | CNC(=O)c1c(-c2ccc(C)cc2)oc2nc(N(CCC[C@H](COC)C(=O)N3C(=O)OC[C@@H]3Cc3ccccc3)S(C)(=O)=O)c(I)cc12 [Example 47.71] |
| 0.002 | CCc1ccc(-c2oc3nc(N(CCOCC(C)(C)C(=O)O)S(C)(=O)=O)c(C4CC4)cc3c2C(=O)NC)cc1 [Example 41.1, 3-(2-(N-(5-Cyclopropyl-2-(4-ethylphenyl)-3-(methylcarbamoyl)furo[2,3-b]pyridin-6-yl)methylsulfonamido)ethoxy)-2,2-dimethylpropanoic acid] |
| 0.449 | C=CCCCN(c1nc2oc(-c3ccc(F)cc3)c(C(=O)NC)c2cc1I)S(C)(=O)=O [Example 18.5, 2-(4-fluorophenyl)-5-iodo-N-methyl-6-(N-(pent-4-enyl)methylsulfonamido)furo[2,3-b]pyridine-3-carboxamide] |
| 0.019 | CNC(=O)c1c(-c2ccc(C)cc2)oc2nc(N(CCCCO)S(C)(=O)=O)c(I)cc12 [Example 23.9996, 6-(N-(4-hydroxybutyl)methylsulfonamido)-5-iodo-N-methyl-2-p-tolylfuro[2,3-b]pyridine-3-carboxamide] |
| 0.061 | CCc1cc2c(C(=O)NC)c(-c3ccc(F)cc3)oc2nc1N(CCCS(=O)(=O)C1CC1)S(C)(=O)=O [Example 23.991, 6-(N-(3-(cyclopropylsulfonyl)propyl)methylsulfonamido)-5-ethyl-2-(4-fluorophenyl)-N-methylfuro[2,3-b]pyridine-3-carboxamide] |
| 0.112 | CNC(=O)c1c(-c2ccc(F)cc2)oc2nc(N(CCCS(C)(=O)=O)S(C)(=O)=O)c(I)cc12 [Example 18.993, 2-(4-fluorophenyl)-5-iodo-N-methyl-6-(N-(3-(methylsulfonyl)propyl)methylsulfonamido)furo[2,3-b]pyridine-3-carboxamide] |
| 0.17 | CNC(=O)c1c(-c2ccc(F)cc2)oc2nc3c(cc12)[C@H](C)C[C@H](O)CN3S(C)(=O)=O (single isomer, unassigned) [Example 33] |
| 0.058 | CNC(=O)c1c(-c2ccc(C)cc2)oc2nc(N(CCC[C@H](C)C(=O)N[C@@H](CO)Cc3ccccc3)S(C)(=O)=O)c(C3CC3)cc12 [Example 47.2] |
| 0.002 | CNC(=O)c1c(-c2ccc(C)cc2)oc2nc(N(CCCC#N)S(C)(=O)=O)c(C3CC3)cc12 [Example 29.5, 6-(N-(3-cyanopropyl)methylsulfonamido)-5-cyclopropyl-N-methyl-2-p-tolylfuro[2,3-b]pyridine-3-carboxamide] |
| 0.002 | CNC(=O)c1c(-c2ccc(C)cc2)oc2nc(N(CCCCBr)S(C)(=O)=O)c(C3CC3)cc12 [Example 29.997, 6-(N-(4-bromobutyl)methylsulfonamido)-5-cyclopropyl-N-methyl-2-p-tolylfuro[2,3-b]pyridine-3-carboxamide] |
| 0.077 | CCc1cc2c(C(=O)NC)c(-c3ccc(F)cc3)oc2nc1N(CCCN1CCN(C)C1=O)S(C)(=O)=O [Example 21.94, 5-ethyl-2-(4-fluorophenyl)-N-methyl-6-(N-(3-(3-methyl-2-oxoimidazolidin-1-yl)propyl)methylsulfonamido)furo[2,3-b]pyridine-3-carboxamide] |
| 0.029 | CCc1cc2c(C(=O)NC)c(-c3ccc(F)cc3)oc2nc1N(CCCC1=C(O)CCC1=O)S(C)(=O)=O [Example 23.95, 5-ethyl-2-(4-fluorophenyl)-6-(N-(3-(2-hydroxy-5-oxocyclopent-1-enyl)propyl)methylsulfonamido)-N-methylfuro[2,3-b]pyridine-3-carboxamide] |
| 0.078 | CCCc1cc2c(C(=O)NC)c(-c3ccc(F)cc3)oc2nc1N(C)S(C)(=O)=O [Example 4.96, 2-(4-fluorophenyl)-N-methyl-6-(N-methylmethylsulfonamido)-5-propylfuro[2,3-b]pyridine-3-carboxamide] |
| 0.016 | CNC(=O)c1c(-c2ccc(F)cc2)oc2nc(N(C)S(C)(=O)=O)c(CCCCC(N)=O)cc12 [Example 4.95, 5-(5-amino-5-oxopentyl)-2-(4-fluorophenyl)-N-methyl-6-(N-methylmethylsulfonamido)furo[2,3-b]pyridine-3-carboxamide] |
| 0.026 | CCc1ccc(-c2oc3nc(N(CCCCCO)S(C)(=O)=O)c(I)cc3c2C(=O)NC)cc1 [Example 23.9993, 2-(4-ethylphenyl)-6-(N-(5-hydroxypentyl)methylsulfonamido)-5-iodo-N-methylfuro[2,3-b]pyridine-3-carboxamide] |
| 1.06 | CCc1cc2c(C(=O)NC)c(-c3ccc(F)cc3)oc2nc1N(C(C)C)S(C)(=O)=O [Example 22.993, 5-ethyl-2-(4-fluorophenyl)-6-(N-isopropylmethylsulfonamido)-N-methylfuro[2,3-b]pyridine-3-carboxamide] |
| 0.428 | CCc1cc2c(C(=O)NC)c(-c3ccc(F)cc3)oc2nc1N(CCN1CCN(C(=O)OC(C)(C)C)CC1)S(C)(=O)=O [Example 21.998, tert-butyl 4-(2-(N-(5-ethyl-2-(4-fluorophenyl)-3-(methylcarbamoyl)furo[2,3-b]pyridin-6-yl)methylsulfonamido)ethyl)piperazine-1-carboxylate] |
| 0.014 | C=CCCCN(c1nc2oc(-c3ccc(C)cc3)c(C(=O)NC)c2cc1C1CC1)S(C)(=O)=O [Example 29.99, 5-cyclopropyl-N-methyl-6-(N-(pent-4-enyl)methylsulfonamido)-2-p-tolylfuro[2,3-b]pyridine-3-carboxamide] |
| 0.015 | C=C(CCCN(c1nc2oc(-c3ccc(C)cc3)c(C(=O)NC)c2cc1C1CC1)S(C)(=O)=O)C(=O)OC [Example 29.9997, methyl 5-(N-(5-cyclopropyl-3-(methylcarbamoyl)-2-p-tolylfuro[2,3-b]pyridin-6-yl)methylsulfonamido)-2-methylenepentanoate] |
| 0.024 | CCc1cc2c(C(=O)NC)c(-c3ccc(F)cc3)oc2nc1N(CCN(C)S(=O)(=O)c1ccccc1)S(C)(=O)=O [Example 22.995, 5-ethyl-2-(4-fluorophenyl)-N-methyl-6-(N-(2-(N-methylphenylsulfonamido)ethyl)methylsulfonamido)furo[2,3-b]pyridine-3-carboxamide] |
| 0.022 | CCOC(=O)C1(CCCN(c2nc3oc(-c4ccc(C)cc4)c(C(=O)NC)c3cc2C2CC2)S(C)(=O)=O)CCNCC1 [Example 29.999993, ethyl 4-(3-(N-(5-cyclopropyl-3-(methylcarbamoyl)-2-p-tolylfuro[2,3-b]pyridin-6-yl)methylsulfonamido)propyl) piperidine-4-carboxylate] |
| 0.002 | CNC(=O)c1c(-c2ccc(C)cc2)oc2nc(N(CCC[C@H](COC)C(=O)O)S(C)(=O)=O)c(C3CC3)cc12 [Example 47.7, (R)-5-(N-(5-Cyclopropyl-3-(methylcarbamoyl)-2-p-tolylfuro[2,3-b]pyridin-6-yl)methylsulfonamido)-2-(methoxymethyl)pentanoic acid] |
| 0.467 | CNC(=O)c1c(-c2ccc(F)cc2)oc2nc(N(C)S(C)(=O)=O)c(C(C)=O)cc12 [Example 10, 5-acetyl-2-(4-fluorophenyl)-N-methyl-6-(N-methylmethylsulfonamido)furo[2,3-b]pyridine-3-carboxamide] |
